The nature of data set [1]: in vitro.
In data set [2] the test system is A/Puerto Rico/8/1934 (PR8; H1N1). The experiment in a line: microbe, parasite or virus in culture. Conditions: Influenza A virus, MDCK.
In data set [3] the test system is A/Hong Kong/8/1968 (HK; H3N2). The experiment in a line: microbe, parasite or virus in culture. Conditions: Influenza A virus, H3N2, MDCK.
The subject of the next data set is B/Lee/1940 (Lee). Kind of data set: microbe, parasite or virus in culture. Conditions: Influenza B virus, MDCK.
Data set [4] can be described thus: physchem. It counts as physicochemical.
Data set [5] is described as follows: physchem. Format: physicochemical. Conditions: pH 7.4.
Data set [6] can be described thus: in vitro. As to conditions: PAMPA. It counts as in vitro ADME. How it is done:
To assess this hypothesis, we conducted the parallel artificial membrane permeability assay (PAMPA) for simulating passive transcellular permeation.[41]
Supplemental Experimental Procedures
In vitro Parallel Artificial Membrane Permeability Assay (PAMPA) […]
evaluated using Parallel Artificial Membrane Permeability Assay Kit (PAMPA-096). Each prodrug and the supplied permeability controls were dissolved in DMSO at the concentration of 10 mM. Then 25 μL of each prodrug solution was mixed with 475 μL of 50 mM sodium phosphate buffer (pH 6.5) to be used as the test solution. GOC/HPMCP and OSC-GCDI/HPCMP particles are dissolved in 50 mM sodium phosphate buffer (5% DMSO, pH 6.5) to achieve a final concentration of 200 µM. In the acceptor plate, 300 μL of 50 mM sodium phosphate buffer (pH 7.4) was added. Subsequently, before adding 200 μL of each test solution to the donor plate, 5 μL of 4% lecithin in dodecane was directly applied to the well membrane of the donor plate. Donor plate was carefully placed into acceptor plate and incubate at r.t. for 16 – 24 h. Donor plate was removed and each solution was collected and filtered by a PVDF filter (0.20 μm pore size). The total prodrug concentration in each plate was determined by HPLC analysis.
In the case of OSC-GCDI(P), partial degradation occurred due to the instability of OSC-GCDI(P) in the buffer. Therefore, the collected solution was further incubated in a 1 M KOH solution for complete hydrolysis. Then, the concentration of GOC was quantified instead.
Background: The PAMPA barrier holds no transporters, so it reflects passive diffusion.

Data set [7] can be described thus: In vitro microsomal stability. It counts as in vitro ADME, rat. On the procedure: In vitro microsomal stability
Sprague Dawley rat microsomes were obtained from GibcoTM. NADPH was purchased from Sigma-Aldrich (Munich, Germany). Liver microsomes at 0.5 mg/mL concentration (final volume of 200 μL) were incubated in phosphate buffer (pH 7.4), containing 3 mM MgCl2. OSC-GCDI prodrug was dissolved in DMSO to be 40 mM concentration, then each prodrug solution was mixed with prepared buffer to achieve a final concentration of 100 μM (0.25% DMSO). Test compounds were incubated at 37 °C and started by the addition of the 1mM NADPH as cofactor. The samples were taken at 0, 30, 60, and 90 min. The reaction was terminated by addition of ice-cold acetonitrile/methanol (1:1, v/v). After collection, samples were centrifuged (10 min, 16,000 rpm), then the centrifuged supernatant was directly analyzed by using HPLC analysis. Metabolic half-time (t1/2) was calculated by using the equation of first order

The conditions of data set [8]: cited from earlier work.
Data set [9] in a line: Stability of OSC-GCDIs in phosphate buffers. It counts as physicochemical.
Data set [10] is described as follows: Stability of OSC-GCDIs and GOC release in BALB/c serum. Conditions: mouse. It counts as in vitro ADME. How it is done:
(§1) Stability of OSC-GCDIs in serum
Stability of the GCDI prodrugs were examined by incubating prodrugs in human and BALB/c serum at 37 °C and 200 μM final concentration. Briefly, each prodrug was dissolved in DMSO to be 20 mM concentration, then 10 μL of each prodrug solution was mixed with 990 μL of serum. At different time intervals, 100 μL of the samples were taken and mixed with 100 μL of MeCN. Samples were centrifuged at 14,000 rpm for 10 min at 4 °C and the supernatant was immediately frozen (−80 °C). After thawing and shaking, the samples were filtered using a polytetrafluoroethylene (PTFE) filter (0.20 μm pore size) […]
Release profiles of GOC from the OSC -GCDI prodrugs conjugated to human serum albumin OSC-GCDIs were dissolved in Dulbecco ’s Phosphate-Buffered Saline (DPBS) containing HSA (20 mg/mL) to be concentration of 1 mM, then the mixture was shaken for 10 min at 37 °C. Unbound OSC-GCDIs were removed by washing twice with DPBS using Vivaspin 500 ultrafiltration units (10 kDa cutoff).
Following centrifugation, the samples were redissolved in 1 mL DPBS. Before incubation at 37 °C, 50 µL sample was taken and mixed with 50 µL of 1 M KOH in m ethanol solution to completely hydrolyze the conjugates and determine the initial drug concentration bound to HSA. Subsequently, the samples were incubated at 37 °C and after 1, 2, 4, 24, and 72 h incubation, 50 µL of the samples were taken and mixed with 50 µL MeCN. Then, the concentration of the released GOC was quantified by HPLC. […]

Data set [11] is described as follows: Stability of OSC-GCDIs in human serum. It counts as in vitro ADME. Conditions: 200 μM prodrug, 37 °C. On the procedure: as §1
Stability of the GCDI prodrugs were examined by incubating prodrugs in human and BALB/c serum at 37 °C and 200 μM final concentration. Briefly, each prodrug was dissolved in DMSO to be 20 mM concentration, then 10 μL of each prodrug solution was mixed with 990 μL of serum. At different time intervals, 100 μL of the samples were taken and mixed with 100 μL of MeCN. Samples were centrifuged at 14,000 rpm for 10 min at 4 °C and the supernatant was immediately frozen (−80 °C). After thawing

For data set [12] the following is noted: authors' response to reviewers, no reference given; cited from earlier work.
Details of data set [13]: method as in Buss, J. L.; Hasinoff, B. B. J. Mol. Model. 2001, 7, 438–444. Conditions: amine-based imides; ref Buss, J. L.; Hasinoff, B. B. J. Mol. Model. 2001, 7, 438–444; cited from earlier work.
Setting [14] is: sodium phosphate buffer, pH 2, phosphate buffer pH 2.0, 37 °C, read-out: T1/2.
[15] abbreviates: sodium phosphate buffer, pH 6.5, phosphate buffer pH 6.5, 37 °C, read-out: T1/2.
The mark [16] stands for this setting: sodium phosphate buffer, pH 7.4, phosphate buffer pH 7.4, 37 °C, read-out: T1/2.
The mark [17] stands for this setting: sodium phosphate buffer, pH 8, phosphate buffer pH 8.0, 37 °C, read-out: T1/2.
The mark [18] stands for this setting: BALB/c serum, 200 μM prodrug, 37 °C, read-out: T1/2.

Like-named read-outs stand apart in the source and are kept apart here. A value given as a limit tells only on which side of the number the result lay.

In the data set “in vitro [1]”, `NC12CC3CC(CC(C3)C1)C2` [AMT, Amantadine, reference compound] gave a CC50 at 3 days greater than 100000 nM. Besides, the EC50 was greater than 100000 nM in data set [2], 1560 ± 400 nM in data set [3] and greater than 100000 nM in the data set on B/Lee/1940 (Lee).

As for `CCC(CC)O[C@@H]1C=C(C(=O)O)C[C@H](NC(=N)N)[C@H]1NC(C)=O` [GOC, guanidino oseltamivir carboxylate, reference compound], the logP in “physchem [4]” (octanol–water, room temperature, read-out: log P) was -1.35. Further, the logD in the data set “physchem [5]” (octanol-phosphate buffer, read-out: log D7.4) was -1.49. For the same compound, the “Effective permeability Pe” value in the data set “in vitro [6]” is recorded as “almost negligible”. This compound returned a half-life in [7] (Sprague Dawley, microsomes, pH 7.4, rat liver microsome, 100 μM, 37 °C) of 116 h. Also, the “remaining GOC” value in [7] (rat liver microsomes, after 90-min incubation) was 98.8%. Also, the CC50 in the data set “in vitro [1]” (dog) was greater than 100000 nM. Besides, in [8] (in vivo, po), the oral bioavailability is reported as less than 4%. Further, the EC50 in [2] was 5 ± 1 nM; in data set [3] it was less than 5 nM; in the data set with B/Lee/1940 (Lee) it was 700 ± 150 nM.

In “physchem [4]”, `CCOC(=O)C1=C[C@@H](OC(CC)CC)[C@H](NC(C)=O)[C@@H](N)C1` [OS-P, Oseltamivir phosphate, reference compound] had a logP of 0.22. Moreover, the logD in “physchem [5]” is -0.42. For the same compound, the Papp at 500 μM in the data set “in vitro [6]” was found to be 2.27 ×10⁻⁶ cm/s. Also, the oral bioavailability in [8] (authors' response to reviewers, no reference given) is on record as 80%; in data set [8] (in vivo, po), greater than 80%. Besides, the half-life result in data set [8] (in vivo) is “less than 1 day”.

For the compound `CCC(CC)O[C@@H]1C=C(C(=O)O)C[C@H](N)[C@H]1NC(C)=O` [OSC, oseltamivir carboxylate, reference compound], in “in vitro [1]” (dog), the CC50 at 3 days is greater than 100000 nM. The EC50 is 100 ± 10 nM in data set [2], less than 5 nM in data set [3] and 1290 ± 250 nM in the data set on B/Lee/1940 (Lee).

Consider `CCCCC1CC(=O)N(C(=N[C@H]2CC(C(=O)O)=C[C@@H](OC(CC)CC)[C@@H]2NC(C)=O)N2C(=O)CC(CCCC)C2=O)C1=O` (stereo partly drawn) [OSC-GCDI(B)], for which the “increase of lipophilicity of GOC via the GCDI modification (based on P)” value in “physchem [4]” is reported as 2082 fold. The logP in the data set “physchem [4]” was determined as 1.83. Further, the logD in “physchem [5]” was determined as 0.91. Moreover, the Papp at 500 μM in “in vitro [6]” is 4.5 ×10⁻⁶ cm/s. For the same compound, the half-life at 100 μM in data set [9] (setting [14]) was greater than 24 h; in data set [9] (setting [15]) it was greater than 24 h; in [9] (setting [16]), 7.7 h; in data set [9] (setting [17]), 2.62 h. Moreover, the results for the half-life at 200 μM in data set [10] (setting [18]) and in data set [11] were 0.285 h and 0.875 h, respectively. In the data set “in vitro [1]” (dog), this compound displayed a CC50 at 3 days greater than 100000 nM. Besides, the EC50 in data set [2] was determined as 90 ± 10 nM; in [3], 40 ± 10 nM; in the data set with B/Lee/1940 (Lee) it was 72400 ± 1350 nM.

Regarding `CCC(CC)O[C@@H]1C=C(C(=O)O)C[C@H](N=C(N2C(=O)[C@H]3CCCC[C@H]3C2=O)N2C(=O)[C@H]3CCCC[C@H]3C2=O)[C@H]1NC(C)=O` [OSC-GCDI(C)], in the data set “physchem [4]”, the logP is 1.33. In “physchem [5]”, this compound showed a logD of 0.46. The Papp at 500 μM in the data set “in vitro [6]” is 2.99 ×10⁻⁶ cm/s. The half-life at 100 μM in data set [9] (setting [14]) is greater than 24 h; in data set [9] (setting [15]), 10.5 h; in [9] (setting [16]) it was 1.36 h; in data set [9] (setting [17]), 0.447 h. Further, the half-life at 200 μM in data set [10] (setting [18]) was found to be 0.397 h; in data set [11], 0.437 h. This compound also had a CC50 at 3 days in “in vitro [1]” (dog) greater than 100000 nM. In addition, the EC50 in data set [2] is 10 ± 10 nM; in data set [3], less than 5 nM; in the data set on B/Lee/1940 (Lee) it was 2210 ± 200 nM.

Consider `CCC(CC)O[C@@H]1C=C(C(=O)O)C[C@H](N=C(N2C(=O)CC(C)(C)C2=O)N2C(=O)CC(C)(C)C2=O)[C@H]1NC(C)=O` [OSC-GCDI(D)], for which, in the data set “physchem [4]”, the logP worked out at 0.98. In addition, the logD in “physchem [5]” was -0.32. This compound came in with a Papp at 500 μM in “in vitro [6]” of 1.66 ×10⁻⁶ cm/s. In addition, the half-life at 100 μM in data set [9] (buffer, pH 7.4, half-life) was greater than 8 h; in data set [9] (setting [14]), greater than 24 h; in data set [9] (setting [15]) it was greater than 24 h; in data set [9] (setting [16]), 8.25 h; in [9] (setting [17]), 2.69 h; in data set [7] (Sprague Dawley, liver microsomes, pH 7.4, rat liver microsome, 100 μM, 37 °C), 6.42 h. In data set [9] (phosphate buffer pH 7.4, 37 °C), this compound came in with a T1/2 of 8.252 h. Moreover, the half-life at 200 μM in [10] (BALB/c, serum) was greater than 1.67 h; in data set [10] (setting [18]) it was 2.63 h; in data set [11] it was 1.95 h. For the same compound, the “CLint (intrinsic clearance)” value in data set [7] (rat, microsomes) was 3.60. Moreover, in “in vitro [1]” (dog), the CC50 at 3 days was greater than 100000 nM. Moreover, the EC50 in data set [2] turned out to be 70 ± 10 nM; in data set [3], 30 ± 10 nM; in the data set with B/Lee/1940 (Lee), 13700 ± 2850 nM.

Consider `C=CC(=O)O` [acrylic acid], for which the pKa in [12] is on record as 4.3.

`O=C1C=CC(=O)N1` [maleimide]: the “hydrolysis rate compared to succinimide” value in data set [13] is recorded as 300 times faster.

As to `O=C1NC(=O)c2ccccc21` [phthalimide], the “hydrolysis rate compared to succinimide” value in data set [13] is 100 times faster.

For orientation: EC50 means the concentration giving half of the maximal effect. High values mean a less potent agent, low ones a more potent agent. For orientation: Papp means a coefficient for how fast a substance crosses the barrier. The pKa is the negative logarithm of the acid dissociation constant.
